{
  "source": "patent US20230145868A1",
  "about": "“UREA INHIBITORS OF MICRO-RNA” (Board of Regents, The University of Texas System, priority 2020, published 2023)",
  "key": {"[1]": {"test_system": "miR-10b", "assay": "Luciferase reporter assay of miR-10b inhibition, MDA-MB-231 cells", "assay_type": "cell-based", "conditions": "Homo sapiens, MDA-MB-231, 48 h", "from_the_text": "To identify miR-10b inhibitors, a luciferase reporter system was designed with complementary oligonucleotides for miR-10b.This luciferase reporter would repress Renilla luciferase signal in the presence of a functional mature miR-10b. However, in the presence of a small molecule that can inhibit mature miR-10b expression or affect its downstream function, the luciferase expression is restored again.\nThe PsiCHECK™-2 luciferase reporter vector was acquired from Promega™, Complementary oligonucleotides for hsa-miR-10b were designed based on the mature miRNA sequence and obtained from Thermo Fisher Scientific. In the design of the microRNA target sequence, several base pairs were added to have two different restriction sites recognizable by the enzyme SgfI at one side, and PmeI on the other (present in the vector as well). In addition, the insert was designed with a restriction site for SacI enzyme in order to have an additional site to digest the vector when monitoring colonies for the presence/absence of the insert. The designed oligonucleotides were annealed as follows: Complementary strands were mixed at a 1:1 molar ratio in a micro centrifuge tube. The mixture was diluted to a final concentration of 1 pmol/μl with a buffer solution of 10 mM Tris, 1 mM EDTA, and 50 mM NaCl (pH 8.0). Mixes were incubated at 95° C. for 5 min, and then the heat was reduced gradually for 70 min, until reaching 4° C. The annealed oligonucleotides were digested along with the PsiCHECK™2 vector with SgfI and PmeI and ligated at the 3′-UTR (downstream) of the Renilla luciferase reporter gene in the PsiCHECK™-2vector. Insert sequences were further confirmed in two ways: enzymatic digestion and sequencing.\nMCF7 cells were seeded 24 h prior to transfection in 96 well plates (2.0×10^4 cells/well). For testing the sensitivity of the assay, antagomiRs and pre-miRs against miR-10b were used at a final concentration of 100 nM. For testing small molecule miRNA inhibitors, the compounds of interest were added to a final concentration of 10 μM. The assay was done in MCF7 or MDA-MB-231 cells at approximately 60% confluence using Lipofectamine in Opti-Mem media with the final vector concentration of 250 ng/mL. All transfections were performed in triplicate for statistical analysis. The cells were incubated at 37° C. for 6 h, followed by replacement of the transfected media with fresh media. After 48 h incubation, the media was removed, and cells were lysed and assayed with a Dual Luciferase Assay Kit (Promega) using a Vi-Tech luminometer. The ratio of Renilla to firefly luciferase expression was calculated for each of the triplicates."}, "[2]": {"test_system": "mature miR-10b", "assay": "RT-qPCR of mature miR-10b", "assay_type": "cell-based, human", "conditions": "normalized to U6, vs DMSO", "description": "(§1) Potential small molecule miRNA inhibitors were tested in MCF7 cells, a metastatic cell line (MM231) and an HCC cell line (HepG2) through RT-qPCR. Cells were seeded in 12-well plates 24 h before treatments at a confluence of 50-60%. They were treated at a concentration of 10 μM linifanib (positive control) or DMSO (negative control), and RNA was collected after 24 and 48 h. MicroRNA expression was tested using TaqMan microRNA assay (Applied Biosystems). The cDNA was synthesized using TaqMan Reverse Transcription Reagents kit (Applied Biosystems) and employed for quantitative RT-qPCR analysis together with TaqMan probes and SsoFastSupermix (Bio-rad). Primers and probes were purchased for hsa-miR-10b, hsa-pri-miR-10b, U6, and U48 snRNA that was used as an internal control.\n(§2) To detect the levels of the precursor sequences, cDNA was synthesized using the SuperScript III cDNA kit (Invitrogen). Diluted cDNA was used for RT-qPCR analysis using iQ SYBR Green Supermix (Bio-Rad) with primers designed by in-house. Experiments were performed in triplicate; treated samples were compared to the DMSO-treated controls and normalized to the internal control. Relative expression levels were calculated using the 2-ΔCt method."}, "[3]": {"test_system": "pre-miR-10b", "assay": "RT-qPCR of precursor miR-10b", "assay_type": "cell-based, human", "conditions": "normalized to U6, vs DMSO", "description": "as §1, §2"}, "[4]": {"test_system": "AGS cell line", "assay": "Cell proliferation assay (WST-8 or MTS), AGS", "assay_type": "cell-based, human", "description": "(§3) IC50 dose-response curves were determined using the cell proliferation assay system. Briefly, 5,000 or 10,000 cells of each cell line were plated in 96-well microculture plates in replicates of either 4 or 6. When cells became adherent, either 5 or 10 sequentially decreasing doses of the small molecule miRNA inhibitor were diluted into new media and added to individual wells. After either 24 or 48 hours, of a tetrazolium salt such as MTS, MTT, or WST-8 was added to each well at the same time of day as treatment and incubated for either 2 or 3 h at 37° C. The OD, measuring at the appropriate wavelength for the dye, was read at on a microplate spectrophotometer.\n(§4) Cell proliferation is determined using a colorimetric assay. A tetrazolium salt such as MTS, MTT, or WST-8 is reduced by dehydrogenase activities in cells to give a formazan dye, which is soluble in the tissue culture media. The amount of the formazan dye (generated by the activities of dehydrogenases in cells, and directly proportional to the number of living cells) is measured after 3 h of incubation. The OD is read at 450 nm on a microplate spectrophotometer and growth values (%) are calculated as (OD treated cells/OD untreated cells)×100. The experiments are performed in triplicate. Cell viability is also tested by bromodeoxyuridine (BrdU) test according to the instructions. 2000 MM231, MCF7 and HepG2 cells are seeded to 96-well plate. After 24 h, 10 μM DMSO or linifanib is added to each well. The OD is read at 450/550 nm on a microplate spectrophotometer, after one to seven days of the treatment. The experiments are performed in triplicate."}, "[5]": {"test_system": "AsPC1 cell line", "assay": "Cell proliferation assay (WST-8 or MTS), AsPC1", "assay_type": "cell-based, human", "description": "as §3\nas §4, with “triplicate. […]” for “triplicate. Cell viability is also tested by bromodeoxyuridine (BrdU) test according to the instructions. 2000 MM231, MCF7 and HepG2 cells are seeded to 96-well plate. After 24 h, 10 μM DMSO or linifanib is added to each well.”, “treatment. […]” for “treatment. The experiments are performed in triplicate.”"}, "[6]": {"test_system": "HOXD10", "assay": "Western blot, HOXD10 expression", "assay_type": "cell-based, human", "conditions": "vs DMSO", "description": "Proteins are collected from cultured cells and lysed with 10× Lysis Buffer (Cell Signaling) freshly supplemented with a complete protease inhibitor cocktail and phosphatase inhibitors (Sigma). Bradford assay is used to measure protein concentration. Proteins are separated by polyacrylamide gel (Bio-rad) electrophoresis and were transferred to a 0.2 μm nitrocellulose membrane (Bio-rad). Quantification of protein expression was conducted using the image analysis software ImageJ."}, "[7]": {"test_system": "AGS cell line", "assay": "Migration assay, AGS", "assay_type": "cell-based, human", "conditions": "vs DMSO"}, "[8]": {"conditions": "Table 5, MDA-MB-231, 10 μM compound, vs negative control (DMSO), mean of triplicate, read-out: n-fold increase in luciferase expression, Mean"}, "[9]": {"conditions": "Table 5, MDA-MB-231, 10 μM compound, vs negative control (DMSO), replicate #1, read-out: n-fold increase in luciferase expression, #1"}, "[10]": {"conditions": "Table 5, MDA-MB-231, 10 μM compound, vs negative control (DMSO), replicate #2, read-out: n-fold increase in luciferase expression, #2"}, "[11]": {"conditions": "Table 5, MDA-MB-231, 10 μM compound, vs negative control (DMSO), replicate #3, read-out: n-fold increase in luciferase expression, #3"}, "[12]": {"conditions": "Table 7, MDA-MB-231, second biological replicant, 10 μM compound, mean of triplicate, read-out: n-fold increase in luciferase expression, Mean"}, "[13]": {"conditions": "Table 7, MDA-MB-231, second biological replicant, 10 μM compound, replicate #1, read-out: n-fold increase in luciferase expression, #1"}, "[14]": {"conditions": "Table 7, MDA-MB-231, second biological replicant, 10 μM compound, replicate #2, read-out: n-fold increase in luciferase expression, #2"}, "[15]": {"conditions": "Table 7, MDA-MB-231, second biological replicant, 10 μM compound, replicate #3, read-out: n-fold increase in luciferase expression, #3"}, "[16]": {"conditions": "5 and 10 μM, beginning at 48 h of treatment"}},
  "note": "Like-named read-outs stand apart in the source and are kept apart here.",
  "data": [
    {"smiles": "Cc1ccc(F)c(NC(=O)Nc2ccc(-c3cncnc3)cc2)c1", "note": "[Example 2, 1-(2-fluoro-5-methylphenyl)-3-(4-(pyrimidin-5-yl)phenyl)urea]", "values": [
      {"measurement": "fold induction at 10 µM", "setting": "[1]; [8]", "value": 1.58},
      {"measurement": "fold induction at 10 µM", "setting": "[1]; [9]", "value": 1.45},
      {"measurement": "fold induction at 10 µM", "setting": "[1]; [10]", "value": 1.9},
      {"measurement": "fold induction at 10 µM", "setting": "[1]; [11]", "value": 1.38},
      {"measurement": "fold induction at 10 µM", "setting": "[1]; [12]", "value": 2.13},
      {"measurement": "fold induction at 10 µM", "setting": "[1]; [13]", "value": 2.38},
      {"measurement": "fold induction at 10 µM", "setting": "[1]; [14]", "value": 1.88},
      {"measurement": "fold induction at 10 µM", "setting": "[1]; [15]", "value": 2.15},
      {"measurement": "level of mature miR-10b", "setting": "[2]; AGS gastric cell line", "value": "reduce the level of mature miR-10b"},
      {"measurement": "level of mature miR-10b", "setting": "[2]; AsPC1 pancreatic cell line", "value": "reduces the level of mature miR-10b"},
      {"measurement": "expression of pre-miR-10b", "setting": "[3]; AGS gastric cell line", "value": "increased expression of pre-miR-10b"},
      {"measurement": "expression of pre-miR-10b", "setting": "[3]; AsPC1 pancreatic cell line", "value": "increased expression of pre-miR-10b"},
      {"measurement": "proliferation", "setting": "[4]; 10 μM, 5 μM and 2 μM, vs DMSO", "value": "reduced proliferation"},
      {"measurement": "proliferation", "setting": "[5]; 10 μM, vs DMSO", "value": "reduced proliferation"},
      {"measurement": "HOXD10 expression (Western blot)", "setting": "[6]; AGS cell line", "value": "upregulated"},
      {"measurement": "migration", "setting": "[7]", "value": "decreased migration"}
    ]},
    {"smiles": "Cc1ccc(F)c(NC(=O)Nc2ccc(-c3cccc4cn[nH]c34)cc2)c1", "note": "[Example 4, 1-(4-(1H-indazol-7-yl)phenyl)-3-(2-fluoro-5-methylphenyl)urea]", "values": [
      {"measurement": "fold induction at 10 µM", "setting": "[1]; [8]", "value": 1.43},
      {"measurement": "fold induction at 10 µM", "setting": "[1]; [9]", "value": 1.36},
      {"measurement": "fold induction at 10 µM", "setting": "[1]; [10]", "value": 1.7},
      {"measurement": "fold induction at 10 µM", "setting": "[1]; [11]", "value": 1.24},
      {"measurement": "fold induction at 10 µM", "setting": "[1]; [12]", "value": 1.55},
      {"measurement": "fold induction at 10 µM", "setting": "[1]; [13]", "value": 1.81},
      {"measurement": "fold induction at 10 µM", "setting": "[1]; [14]", "value": 1.8},
      {"measurement": "fold induction at 10 µM", "setting": "[1]; [15]", "value": 1.05},
      {"measurement": "level of mature miR-10b", "setting": "[2]; AGS gastric cell line", "value": "reduces the level of mature miR-10b"},
      {"measurement": "level of mature miR-10b", "setting": "[2]; AsPC1 pancreatic cell line", "value": "reduces the level of mature miR-10b"},
      {"measurement": "expression of pre-miR-10b", "setting": "[3]; AGS gastric cell line", "value": "increasing precursor miRNA transcript"},
      {"measurement": "expression of pre-miR-10b", "setting": "[3]; AsPC1 pancreatic cell line", "value": "increasing precursor miRNA transcript"},
      {"measurement": "cell viability (proliferation ability)", "setting": "[4]; 10 μM, vs DMSO", "value": "statistically significant effect"},
      {"measurement": "proliferation (MTS), every 24 h over 96 h", "setting": "[4]; [16]", "value": "significant difference in proliferation"},
      {"measurement": "proliferation (MTS), every 24 h over 96 h", "setting": "[5]; [16]", "value": "significant difference in proliferation"},
      {"measurement": "HOXD10 expression (Western blot)", "setting": "[6]; AGS cell line", "value": "upregulated"},
      {"measurement": "HOXD10 expression (Western blot)", "setting": "[6]; AsPC1 cell line", "value": "upregulated"},
      {"measurement": "migration", "setting": "[7]", "value": "decreased migration"}
    ]}
  ]
}
